Experimental data reported in publication PMC6039436, “Radiobrominated benzimidazole-quinoline derivatives as Platelet-derived growth factor receptor beta (PDGFRβ) imaging probes” (Scientific Reports, 2018).
Marks after values point to notes of the source that are not given here.

Experiments:
[1] = Biodistribution in ddY mice; type: in vivo; settings: i.v. co-injection
Procedure: In this study, to minimize both the number of mice consumed in the experiment and the potential for experimental errors, we co-injected radiobrominated and radioiodinated compounds into mice[30],[31]. High radioactivity in the liver, small intestine, and large intestine was observed.
(§1) Mice were intravenously injected via the tail with 100 µL of saline solution of [^77Br]2 and [^125I]4 or [^77Br]3 and [^125I]5 (74 kBq, respectively), containing 10% ethanol and 1% tween-80. The ddY mice were sacrificed at 10 min, 1, 4, and 24 h postinjection. Meanwhile, tumor-bearing mice were sacrificed at 1 h postinjection.
(§2) Tissues in mice were resected and weighed. The radioactivity of the tissues was counted by a gamma counter and counts were corrected for background radiation. The data were expressed as percent injection dose per gram tissue (%ID/g).

[2] = test system: BxPC3-luc tumor; experiment: Biodistribution in BxPC3-luc tumor-bearing mice; type: in vivo, BALB/c nu/nu mice; settings: i.v. co-injection, 1 h
Procedure: We investigated the biodistribution of the radiotracers in BxPC3-luc tumor-bearing mice by co-injecting [^77Br]2 with [^125I]4 (Table 3), and [^77Br]3 with [^125I]5 (Table 4).
Animal experiments were conducted in strict accordance with the Guidelines for the Care and Use of Laboratory Animals of Kanazawa University. The animal experimental protocols used were approved by the Committee on Animal Experimentation of Kanazawa University (Permit Number: AP-163766). The animals were housed with free access to food and water at approximately 23 °C with a 12 h light/dark schedule. ddY mice (six-week-old, male, 27–30 g) and BALB/c nu/nu mice (four-week-old, female, 12–17 g) were purchased from Japan SLC Inc. (Hamamatsu, Japan). For preparing the tumor-bearing mice, BxPC3-luc cells (5 × 10^6 cells) were subcutaneously injected into the left shoulder of BALB/c nu/nu mice. The tumor reached palpable size after two weeks of the inoculation.
as §1, §2

[3] = design: method as in PMID 28838832; settings: radioiodinated compounds; cited from earlier work

For COCCOc1ccc2c(c1)ncn2-c1ccc2cccc(N3CCC(NC(=O)c4cccc([125I])c4)CC3)c2n1 [[^125I]5, [^125I]N-3-iodobenzoyl-1-{2-[5-(2-methoxyethoxy)-1H-benzo[d]imidazol-1-yl]quinolin-8-yl}-piperidin-4-amine, reference compound], the “Radioactivity in Blood” value ([1]; 10 min) was 0.94 (0.14)^** %injected dose/gram tissue, the “Radioactivity in Bone” value ([1]; 10 min) was 0.81 (0.11)^** %injected dose/gram tissue and the “Radioactivity in Brain” value ([1]; 10 min) was 0.19 (0.03)^** %injected dose/gram tissue. For the same molecule, the “Radioactivity in Heart” value ([1]; 10 min) was 1.66 (0.23)^** %injected dose/gram tissue, the “Radioactivity in Kidney” value ([1]; 10 min) was 5.23 (0.65) %injected dose/gram tissue and the “Radioactivity in Large intestine” value ([1]; 10 min) was 0.75 (0.06)^* %injected dose/gram tissue. The “Radioactivity in Liver” value ([1]; 10 min) was 16.37 (2.05)^** %injected dose/gram tissue, the “Radioactivity in Lung” value ([1]; 10 min) was 1.80 (0.30)^* %injected dose/gram tissue and the “Radioactivity in Muscle” value ([1]; 10 min) was 0.97 (0.16)^* %injected dose/gram tissue. The “Radioactivity in Pancreas” value ([1]; 10 min) was 2.41 (0.20) %injected dose/gram tissue, the “Radioactivity in Small intestine” value ([1]; 10 min) was 9.59 (1.71)^** %injected dose/gram tissue and the “Radioactivity in Spleen” value ([1]; 10 min) was 1.72 (0.23) %injected dose/gram tissue. For the same molecule, the “Radioactivity in Stomach” value ([1]; 10 min) was 2.09 (1.12) %injected dose /organ, the “Radioactivity in Blood” value ([1]; 1 h) was 0.26 (0.05)^** %injected dose/gram tissue and the “Radioactivity in Bone” value ([1]; 1 h) was 0.64 (0.31)^*** %injected dose/gram tissue. For the same molecule, the “Radioactivity in Brain” value ([1]; 1 h) was 0.07 (0.03)^** %injected dose/gram tissue, the “Radioactivity in Heart” value ([1]; 1 h) was 0.39 (0.15)^** %injected dose/gram tissue and the “Radioactivity in Kidney” value ([1]; 1 h) was 1.57 (0.42) %injected dose/gram tissue. The “Radioactivity in Large intestine” value ([1]; 1 h) was 3.46 (2.18) %injected dose/gram tissue, the “Radioactivity in Liver” value ([1]; 1 h) was 3.32 (0.49)^** %injected dose/gram tissue and the “Radioactivity in Lung” value ([1]; 1 h) was 1.07 (0.08) %injected dose/gram tissue. The “Radioactivity in Muscle” value ([1]; 1 h) was 0.31 (0.13)^* %injected dose/gram tissue, the “Radioactivity in Pancreas” value ([1]; 1 h) was 0.86 (0.07)^** %injected dose/gram tissue and the “Radioactivity in Small intestine” value ([1]; 1 h) was 24.03 (1.45)^** %injected dose/gram tissue. For the same molecule, the “Radioactivity in Spleen” value ([1]; 1 h) was 0.70 (0.16)^** %injected dose/gram tissue, the “Radioactivity in Stomach” value ([1]; 1 h) was 0.78 (0.19) %injected dose /organ and the “Radioactivity in Blood” value ([1]; 4 h) was 0.08 (0.01)^** %injected dose/gram tissue. The “Radioactivity in Bone” value ([1]; 4 h) was 0.40 (0.09)^** %injected dose/gram tissue, the “Radioactivity in Brain” value ([1]; 4 h) was 0.01 (0.00)^** %injected dose/gram tissue and the “Radioactivity in Heart” value ([1]; 4 h) was 0.20 (0.04)^** %injected dose/gram tissue. For the same molecule, the “Radioactivity in Kidney” value ([1]; 4 h) was 0.36 (0.10)^* %injected dose/gram tissue, the “Radioactivity in Large intestine” value ([1]; 4 h) was 18.55 (1.85)^** %injected dose/gram tissue and the “Radioactivity in Liver” value ([1]; 4 h) was 1.21 (0.96) %injected dose/gram tissue. For the same molecule, the “Radioactivity in Lung” value ([1]; 4 h) was 0.50 (0.19) %injected dose/gram tissue, the “Radioactivity in Muscle” value ([1]; 4 h) was 0.16 (0.08)^* %injected dose/gram tissue and the “Radioactivity in Pancreas” value ([1]; 4 h) was 0.27 (0.07)^** %injected dose/gram tissue. For the same molecule, the “Radioactivity in Small intestine” value ([1]; 4 h) was 1.32 (0.66)^* %injected dose/gram tissue, the “Radioactivity in Spleen” value ([1]; 4 h) was 0.27 (0.09)^** %injected dose/gram tissue and the “Radioactivity in Stomach” value ([1]; 4 h) was 0.27 (0.10) %injected dose /organ. The “Radioactivity in Blood” value ([1]; 24 h) was 0.01 (0.00)^** %injected dose/gram tissue, the “Radioactivity in Bone” value ([1]; 24 h) was 0.06 (0.00)^** %injected dose/gram tissue and the “Radioactivity in Brain” value ([1]; 24 h) was 0.00 (0.00)^** %injected dose/gram tissue. The “Radioactivity in Heart” value ([1]; 24 h) was 0.02 (0.01)^** %injected dose/gram tissue, the “Radioactivity in Kidney” value ([1]; 24 h) was 0.05 (0.00)^** %injected dose/gram tissue and the “Radioactivity in Large intestine” value ([1]; 24 h) was 0.02 (0.00)^** %injected dose/gram tissue. For the same molecule, the “Radioactivity in Liver” value ([1]; 24 h) was 0.06 (0.00)^** %injected dose/gram tissue, the “Radioactivity in Lung” value ([1]; 24 h) was 0.01 (0.00)^** %injected dose/gram tissue and the “Radioactivity in Muscle” value ([1]; 24 h) was 0.01 (0.00)^** %injected dose/gram tissue. The “Radioactivity in Pancreas” value ([1]; 24 h) was 0.02 (0.00)^** %injected dose/gram tissue, the “Radioactivity in Small intestine” value ([1]; 24 h) was 0.01 (0.00)^** %injected dose/gram tissue and the “Radioactivity in Spleen” value ([1]; 24 h) was 0.02 (0.00)^** %injected dose/gram tissue. The “Radioactivity in Stomach” value ([1]; 24 h) was 0.01 (0.00)^** %injected dose /organ, the “Radioactivity in Blood” value [2] was 0.23 (0.02)^** %injected dose/gram of tissue and the “Radioactivity in Bone” value [2] was 0.31 (0.04)^** %injected dose/gram of tissue. The “Radioactivity in Brain” value [2] was 0.05 (0.00)^** %injected dose/gram of tissue, the “Radioactivity in BxPC3-luc tumor” value [2] was 0.55 (0.09)^* %injected dose/gram of tissue and the “Radioactivity in Heart” value [2] was 0.42 (0.05)^** %injected dose/gram of tissue. For the same molecule, the “Radioactivity in Kidney” value [2] was 1.13 (0.11)^** %injected dose/gram of tissue, the “Radioactivity in Large intestine” value [2] was 7.98 (3.79) %injected dose/gram of tissue and the “Radioactivity in Liver” value [2] was 4.83 (0.71)^** %injected dose/gram of tissue. For the same molecule, the “Radioactivity in Lung” value [2] was 1.16 (0.23)^** %injected dose/gram of tissue, the “Radioactivity in Muscle” value [2] was 0.38 (0.06)^** %injected dose/gram of tissue and the “Radioactivity in Pancreas” value [2] was 1.25 (0.17)^** %injected dose/gram of tissue. For the same molecule, the “Radioactivity in Small intestine” value [2] was 46.95 (2.88)^** %injected dose/gram of tissue, the “Radioactivity in Spleen” value [2] was 0.61 (0.06)^** %injected dose/gram of tissue and the “Radioactivity in Stomach” value [2] was 0.27 (0.06)^* %injected dose /organ. The “n-octanol/phosphate buffer partition coefficient (log P)” value [3] was 3.19 ± 0.17.
